Measured values reported in PubChem BioAssay AID1963844 (Molecular Pharmacology Branch, DTP, NCI, 2024).

Tested on: 422866-222-R5-J1-PDC complex spheroid viability
Experiment: Anticancer human tumor 422866-222-R5-J1-PDC patient-derived pancreatic adenocarcinoma cell line growth inhibition [POLQ]
Conditions: for IC50: curve of first compound; for viability, T/C: stronger effect = lower value
How it was run: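 PDC + HUVEC + MSC complex spheroids; POLQ inhibitors ± partner drugs; top conc. at/near clinical Cmax, else 10 microM (SN-38 1 microM), half-log dilutions; 37 degrees C, 5% CO2.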
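Also: spheroids exposed to compounds for one week before readout.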
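For viability, T/C in this document: percent of DMSO vehicle wells luminescence so 100% = untreated viability.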

Compound: C=CC(=O)N1CCN(c2nc(=O)n(-c3c(C)ccnc3C(C)C)c3nc(-c4c(O)cccc4F)c(F)cc23)C(C)C1 (configuration not stated) + COC1C(OC(N)=O)C(O)C(Oc2ccc3c(O)c(NC(=O)c4ccc(O)c(CC=C(C)C)c4)c(=O)oc3c2C)OC1(C)C
- IC50 (second compound 0.0316 µM): < 31.6 nM
- IC50 (second compound 0.1 µM): < 31.6 nM
- IC50 (second compound 0.316 µM): < 31.6 nM
- IC50 (second compound 1 µM): < 31.6 nM
- IC50 (second compound 3.16 µM): < 31.6 nM
- IC50 (second compound 10 µM): < 31.6 nM
- viability, T/C (second compound 0.0316 µM, first compound 0.0316 µM): 33.4%
- viability, T/C (second compound 0.0316 µM, first compound 0.1 µM): 26.7%
- viability, T/C (second compound 0.0316 µM, first compound 0.316 µM): 29%
- viability, T/C (second compound 0.0316 µM, first compound 1 µM): 22.4%
- viability, T/C (second compound 0.0316 µM, first compound 3.16 µM): 28%
- viability, T/C (second compound 0.0316 µM, first compound 10 µM): 33%
- viability, T/C (second compound 0.1 µM, first compound 0.0316 µM): 32.8%
- viability, T/C (second compound 0.1 µM, first compound 0.1 µM): 28.9%
- viability, T/C (second compound 0.1 µM, first compound 0.316 µM): 23.3%
- viability, T/C (second compound 0.1 µM, first compound 1 µM): 23.7%
- viability, T/C (second compound 0.1 µM, first compound 3.16 µM): 23.2%
- viability, T/C (second compound 0.1 µM, first compound 10 µM): 27.1%
- viability, T/C (second compound 0.316 µM, first compound 0.0316 µM): 29.9%
- viability, T/C (second compound 0.316 µM, first compound 0.1 µM): 25.1%
- viability, T/C (second compound 0.316 µM, first compound 0.316 µM): 24.3%
- viability, T/C (second compound 0.316 µM, first compound 1 µM): 21%
- viability, T/C (second compound 0.316 µM, first compound 3.16 µM): 24.4%
- viability, T/C (second compound 0.316 µM, first compound 10 µM): 28.7%
- viability, T/C (second compound 1 µM, first compound 0.0316 µM): 34.4%
- viability, T/C (second compound 1 µM, first compound 0.1 µM): 30.6%
- viability, T/C (second compound 1 µM, first compound 0.316 µM): 28.4%
- viability, T/C (second compound 1 µM, first compound 1 µM): 28.4%
- viability, T/C (second compound 1 µM, first compound 3.16 µM): 20.8%
- viability, T/C (second compound 1 µM, first compound 10 µM): 25.6%
- viability, T/C (second compound 3.16 µM, first compound 0.0316 µM): 31.3%
- viability, T/C (second compound 3.16 µM, first compound 0.1 µM): 27.1%
- viability, T/C (second compound 3.16 µM, first compound 0.316 µM): 28.3%
- viability, T/C (second compound 3.16 µM, first compound 1 µM): 23.7%
- viability, T/C (second compound 3.16 µM, first compound 3.16 µM): 28.2%
- viability, T/C (second compound 3.16 µM, first compound 10 µM): 29.3%
- viability, T/C (second compound 10 µM, first compound 0.0316 µM): 32.2%
- viability, T/C (second compound 10 µM, first compound 0.1 µM): 26.8%
- viability, T/C (second compound 10 µM, first compound 0.316 µM): 30%
- viability, T/C (second compound 10 µM, first compound 1 µM): 22.9%
- viability, T/C (second compound 10 µM, first compound 3.16 µM): 25.4%
- viability, T/C (second compound 10 µM, first compound 10 µM): 28.6%
